pIC50: −log10 of the molar value.

This assay deals with T1, human recombinant phosphodiesterase IVb (met-248) (Homo sapiens, UniProt Q07343).
T1 construct: fused on or other part: GST (glutathione transferase) fused on as a tag
T1 sequence (Q07343 236-736): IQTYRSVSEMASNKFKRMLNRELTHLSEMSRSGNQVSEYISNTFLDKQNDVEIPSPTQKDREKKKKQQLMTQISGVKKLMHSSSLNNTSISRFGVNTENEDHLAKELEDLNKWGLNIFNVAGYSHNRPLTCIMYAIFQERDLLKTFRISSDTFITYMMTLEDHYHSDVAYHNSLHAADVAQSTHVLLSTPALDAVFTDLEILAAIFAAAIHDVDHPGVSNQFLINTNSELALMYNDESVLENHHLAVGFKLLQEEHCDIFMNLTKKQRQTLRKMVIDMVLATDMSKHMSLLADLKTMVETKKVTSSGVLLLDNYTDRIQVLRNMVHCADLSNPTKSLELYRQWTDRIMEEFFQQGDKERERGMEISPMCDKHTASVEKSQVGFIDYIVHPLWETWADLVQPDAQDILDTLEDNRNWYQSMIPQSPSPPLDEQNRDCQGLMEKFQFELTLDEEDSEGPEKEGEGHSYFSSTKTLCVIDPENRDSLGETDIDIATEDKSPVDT
The assay can be described thus: SPA based PDE activity assay. It counts as biochemical. Conditions: 100 nM cAMP, purified GST fusion protein of PDE IVb (met-248) from baculovirus/Sf-9. The method, then:
Compounds which inhibit the hydrolysis of cAMP to AMP by the type-IV cAMP-specific phosphodiesterases were screened in a 96-well plate format as follows:
In a 96 well-plate at 30° C. was added the test compound (dissolved in 2 μL DMSO), […] of substrate buffer containing [2,8-^3H] adenosine 3′,5′-cyclic phosphate (cAMP, 110 nM to 50 μM), 10 mM MgCl2, 1 mM EDTA, 50 mM Tris, pH 7.5. The reaction was initiated by the addition of […] of human recombinant PDE4 (the amount was controlled so that ˜10% product was formed in 10 min.). The reaction was stopped after 10 min. by the addition of 1 mg of PDE-SPA beads (Amersham Pharmacia Biotech, Inc., Piscataway, N.J.). The product AMP generated was quantified on a Wallac Microbeta® 96-well plate counter (EG&G Wallac Co., Gaithersburg, Md.). The signal in the absence of enzyme was defined as the background. 100% activity was defined as the signal detected in the presence of enzyme and DMSO with the background subtracted. Percentage of inhibition was calculated accordingly. IC50 value was approximated with a non-linear regression fit using the standard 4-parameter/multiple binding sites equation from a ten point titration.
The IC50 values of the Examples disclosed here under were determined with 100 nM cAMP using the purified GST fusion protein of the human recombinant phosphodiesterase IVb (met-248) produced from a baculovirus/Sf-9 expression system.
For the compound `O=C(NCC1CC1)c1cn(-c2cccc(-c3ccc(C4CC4C(=O)O)cc3)c2)c2ncccc2c1=O` (centres unmarked) [Example 26, 2-{3′-[3-{[(Cyclopropylmethyl)amino]carbonyl}4-oxo-1,8-naphthyridin-1(4H)-yl]-1,1′-biphenyl-4-yl}cyclopropanecarboxylic acid], the pIC50 was 9.70.
Take `CC(C)(CC(=O)O)c1ccc(-c2cccc(-n3cc(C(=O)NC4CC4)c(=O)c4cccnc43)c2)cc1` [Example 5, 3-{3′-[3-[(Cyclopropylamino)carbonyl]4-oxo-1,8-naphthyridin-1(4H)-yl]-1,1′-biphenyl-4-yl}-3-methylbutanoic acid]: the pIC50 was 9.22.
Consider `O=C(NCC(F)(F)F)c1cn(-c2cccc(-c3ccc(C4CC4C(=O)O)c(F)c3)c2)c2ncccc2c1=O` (single isomer, unassigned; (+)) [Example 29, (+)-(trans)-2-{3-fluoro-3′-[4-oxo-3-{[(2,2,2-trifluoroethyl)amino]carbonyl}-1,8-naphthyridin-1(4H)-yl]biphenyl-4-yl}cyclopropanecarboxylic acid], for which the pIC50 was 9.52.
In the case of `O=C(NCC(F)(F)F)c1cn(-c2cccc(-c3ccc([C@@H]4C[C@H]4C(=O)O)cc3)c2)c2ncccc2c1=O` (single isomer, unassigned; (+)) [24-(+)-isomer, (+)-(trans)-2-{3′-[4-oxo-3-{[(2,2,2-trifluoroethyl)amino]carbonyl}-1,8-naphthyridin-1(4H)-yl]biphenyl-4-yl}cyclopropanecarboxylic acid], the pIC50 was 9.40.
`O=C(NC1CC1)c1cn(-c2cccc(-c3ccc([C@H]4C[C@H]4C(=O)O)cc3)c2)c2ncccc2c1=O` (single isomer, unassigned; isomer 2) [8-(−)-isomer, 2-(cis)-{3′-[3-[(Cyclopropylamino)carbonyl]-4-oxo-1,8-naphthyridin-1(4H)-yl]-1,1′-biphenyl-4-yl}cyclopropanecarboxylic acid]: the negative-log IC50 (pIC50) was 9.15.
Turning to `O=C(NC1CC1)c1cn(-c2cccc(-c3cccc(C4CC4C(=O)O)c3)c2)c2ncccc2c1=O` (centres unmarked) [Example 2], the negative-log IC50 (pIC50) is 9.70.
To `O=C(NC1CC1)c1cn(-c2cccc(-c3ccc(C4CC4C(=O)O)c(Cl)c3)c2)c2ncccc2c1=O` (centres unmarked) [Example 17, 2-{3-Chloro-3′-[3-[(cyclopropylamino)carbonyl]-4-oxo-1,8-naphthyridin-1(4H)-yl]-1,1′-biphenyl-4-yl}cyclopropanecarboxylic acid] belongs 10.00; to `O=C(NC1CC1)c1cn(-c2cccc(-c3ccc(C4CC4C(=O)O)c(F)c3)c2)c2ncccc2c1=O` (single isomer, unassigned; isomer 2) [12-(−)-isomer, 2-{3′-[3-[(Cyclopropylamino)carbonyl]-4-oxo-1,8-naphthyridin-1(4H)-yl]-3-fluoro-1,1′-biphenyl-4-yl}cyclopropanecarboxylic acid], 9.40.

For orientation: pIC50 means the IC50 on a negative log10 scale, so that one unit is a factor of ten.

The record behind these values is patent US7342024B2, “4-Oxo-1-3-substituted phenyl-1,4-dihydro-1,8-naphthyridine-3-carboxamide phosphodiesterase-4 inhibitors” (Merck Frost Canada Ltd., priority 2002, dated 2008).
